Converted amounts (≈) assume the structure as drawn. Values belong to the molecule of their own block, whether it stands above or below them.
Tests used:
[1] = Powder bulk density of ibuprofen / 10% P407 powders; assay type: physicochemical; settings: ibuprofen combined with 10% Poloxamer 407, not subjected to heat and shear
Protocol: The screw configurations are shown below, where “C” represents conveying elements and “K” represents kneading elements: For each experiment, mean residence time, powder temperature, and powder bulk density were measured.

[2] = 50 mg powder, 10% cetylpyridinium chloride, 100 rpm, 900 ml deionized water; FIG. 7
Protocol: Dissolution testing was performed on the following materials used or prepared herein in order to determine the percentage of carbamazepine released over time: • 10% cetylpyridinium chloride Treated • 10% cetylpyridinium chloride Physical Mix • Carbamazepine, no surfactant
In each test, 50 mg of powder was added to a dissolution vessel, and dissolution was conducted using the USP paddle method at 100 rpm in 900 ml of a buffer medium of deionized water.

physchem = settings: pH 1.8, simulated gastric fluid
Protocol: (§1) For each test, 12 mg of powder was added to a dissolution vessel, and dissolution was conducted using the USP paddle method at 75 rpm in 900 ml of a buffer medium comprising 0.02 M hydrochloric acid and having a pH of 1.8.
(§2) In each test, 12 mg of powder was added to a dissolution vessel, and dissolution was conducted using the USP paddle method at 75 rpm in 900 ml of a buffer medium comprising 0.02 M hydrochloric acid and having a pH of 1.8.

[3] = Dissolution testing of ibuprofen/poloxamer powders (USP paddle method); assay type: physicochemical; settings: 12 mg powder, 75 rpm, 900 ml 0.02 M hydrochloric acid pH 1.8; Ibuprofen 1, 2, 3; FIGS. 2-4
Protocol: as §1

[4] = Dissolution testing of ibuprofen/polyoxyethylene stearate powders (USP paddle method); assay type: physicochemical; settings: 12 mg powder, Ibuprofen 2, 10% polyoxyethylene stearate, 75 rpm, 900 ml 0.02 M hydrochloric acid pH 1.8; FIG. 6
Protocol: as §2

SMILES: CC(C)Cc1ccc(C(C)C(=O)O)cc1 (stereo not shown) [Ibuprofen 1, ibuprofen]
Powder Bulk Density of 10% P407 Physical Mix [1]: 0.320 g/ml

SMILES: CC(C)Cc1ccc(C(C)C(=O)O)cc1 (stereo not shown) [Ibuprofen 2, ibuprofen]
Powder Bulk Density of 10% P407 Physical Mix [1]: 0.374 g/ml

SMILES: NC(=O)N1c2ccccc2C=Cc2ccccc21 [Uncoated carbamazepine, carbamazepine]
dissolution rate (percentage of carbamazepine released over time) [2]: poorest dissolution rate

More lines, now with the values ahead:

Powder Bulk Density of 10% P407 Physical Mix [1]: 0.382 g/ml
SMILES: CC(C)Cc1ccc(C(C)C(=O)O)cc1 (stereo not shown) [Ibuprofen 3, ibuprofen]

solubility (physchem): 0.053 mg/mL (≈ 257 µM)
dissolution rate (percentage of ibuprofen released over time) [3]: slowest dissolution rate
dissolution rate (percentage of ibuprofen released over time) [4]: poorest dissolution rate
SMILES: CC(C)Cc1ccc(C(C)C(=O)O)cc1 (stereo not shown) [Uncoated ibuprofen, ibuprofen]
